Experimental data taken from patent publication US20080125466A1, “Aryl-Substituted Benzo[D]Isothiazol-3-Ylamine Analogues” (NEUROGEN CORPORATION, priority 2003, published 2008).

Target: T1, human capsaicin receptor (Homo sapiens, UniProt Q8NER1)
T1 construct: transfected with the pBK-CMV expression construct encoding the full length human capsaicin receptor; expressed in transfected cells
Experiment: Calcium mobilization assay (antagonist and agonist activity)
Format: cell-based
Details: capsaicin as positive control in agonist assay; read-out: approximate EC90 concentration
Protocol: This Example illustrates representative calcium mobilization assays for use in evaluating test compounds for agonist and antagonist activity.
The culture medium is emptied from the 96 well plates and FLUO-3 AM calcium sensitive dye (Molecular Probes, Eugene, Oreg.) is added to each well (dye solution: 1 mg FLUO-3 AM, 440 μL DMSO and 440 μl 20% pluronic acid in DMSO, diluted 1:250 in Krebs-Ringer HEPES (KRH) buffer (25 mM HEPES, 5 mM KCl, 0.96 mM NaH2PO4, 1 mM MgSO4, 2 mM CaCl2, 5 mM glucose, 1 mM probenecid, pH 7.4), 50 μl diluted solution per well). Plates are covered with aluminum foil and incubated at 37° C. for 1-2 hours in an environment containing 5% CO2. […]
To measure the ability of a test compound to agonize or antagonize a calcium mobilization response in cells expressing capsaicin receptors to capsaicin or other vanilloid agonist, the EC50 of the agonist capsaicin is first determined. […] Capsaicin-induced calcium mobilization is monitored using either FLUOROSKAN ASCENT (Labsystems; Franklin, Mass.) or FLIPR (fluorometric imaging plate reader system; Molecular Devices, Sunnyvale, Calif.) instruments. […]
In this equation, y is the maximum fluorescence signal, x is the concentration of the agonist or antagonist (in this case, capsaicin), a is the Emax, b corresponds to the EC50 value and c is the Hill coefficient. […]

T1 sequence (Q8NER1 whole entry): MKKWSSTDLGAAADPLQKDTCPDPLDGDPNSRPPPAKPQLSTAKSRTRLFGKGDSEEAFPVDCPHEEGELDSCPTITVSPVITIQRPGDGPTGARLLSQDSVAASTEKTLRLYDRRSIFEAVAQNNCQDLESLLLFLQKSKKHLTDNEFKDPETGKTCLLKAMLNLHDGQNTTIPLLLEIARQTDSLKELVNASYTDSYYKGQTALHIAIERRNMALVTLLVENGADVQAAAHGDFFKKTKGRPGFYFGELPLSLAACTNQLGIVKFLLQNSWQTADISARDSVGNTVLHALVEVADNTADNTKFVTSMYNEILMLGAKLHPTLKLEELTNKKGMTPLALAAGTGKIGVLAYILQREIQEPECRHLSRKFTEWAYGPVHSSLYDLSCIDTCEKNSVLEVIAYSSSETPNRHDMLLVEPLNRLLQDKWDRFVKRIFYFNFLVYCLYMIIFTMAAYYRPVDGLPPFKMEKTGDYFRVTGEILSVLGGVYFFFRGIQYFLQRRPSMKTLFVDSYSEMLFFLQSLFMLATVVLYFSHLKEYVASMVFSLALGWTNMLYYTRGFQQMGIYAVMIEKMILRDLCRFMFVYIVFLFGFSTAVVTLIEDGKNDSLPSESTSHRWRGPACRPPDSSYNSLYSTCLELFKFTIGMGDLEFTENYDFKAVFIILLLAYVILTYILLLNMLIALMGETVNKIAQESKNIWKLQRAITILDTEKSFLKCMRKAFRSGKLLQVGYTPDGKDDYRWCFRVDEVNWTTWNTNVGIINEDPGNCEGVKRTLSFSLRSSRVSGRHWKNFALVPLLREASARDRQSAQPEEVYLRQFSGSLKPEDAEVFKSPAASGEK

- EC90: ~100 nM
SMILES: COc1cc(CNC(=O)CCCC/C=C/C(C)C)ccc1O [capsaicin]
